In brackets after ≈: the same amount, converted by molar mass. Where two headings read alike, the source gives them in different places.
Key:
[1] = system: S. aureus FDA209P (ATCC 6538P); experiment: microbe, parasite or virus in culture; format: cell-based, Staphylococcus aureus; conditions: quinolone-susceptible MSSA, ParC 80S, GyrA 84S
Procedure: (§1) Then, the cell suspension was diluted 500 times with CAMHB mentioned above.

S. aureus Mu50 = experiment: microbe, parasite or virus in culture; format: cell-based, Staphylococcus aureus; conditions: for MIC: S. aureus Mu50, quinolone-resistant MRSA, ParC S80F, GyrA S84L; for MIC ratio (Mu50 MIC/FDA209P MIC): MIC for S. aureus Mu50 / MIC for S. aureus FDA209P
Procedure: as §1

E. faecium NCTC12202 = experiment: MIC against Enterococcus bacteria; format: cell-based, Enterococcus faecium
Procedure: (§2) Antibacterial activities of the compound J-131CP against Enterococcus bacteria (Enterococcus faecium and Enterococcus faecalis) were examined by the following methods.
(§3) The compound J-131CP and quinolones were prepared in the same manner as that of Test Example 1-1.
(§4) Cell suspensions were prepared in the same manner as that of Test Example 1-1 described in the section of measurement of MIC in Test Example 1-1, except that the Enterococcus bacterium strains mentioned in Table 8 were used instead of Staphylococcus aureus, and MICs of the compound J-131CP and quinolones as control were determined for the strains in the same manner as that of Test Example 1-1 described in the section of measurement of MIC in Test Example 1-1. In Table 8, the amino acid substitution mutations in QRDR of the strains are underlined.

E. faecium RPR2 = experiment: MIC against Enterococcus bacteria; format: cell-based, Enterococcus faecium
Procedure: as §2, §3, §4

E. faecalis NCTC12201 = experiment: MIC against Enterococcus bacteria; format: cell-based; conditions: quinolone-susceptible
Procedure: as §2, §3, §4

E. faecalis 36-15722 = experiment: MIC against Enterococcus bacteria; format: cell-based, Enterococcus faecalis; conditions: E. faecalis 36-15722, quinolone-resistant, ParC 80Ile, GyrA 84Ile
Procedure: as §2, §3, §4

S. pneumoniae BCLSP37 = experiment: MIC against pneumococcus, CAMHB with 5 mass % LHB; format: cell-based, Streptococcus pneumoniae; conditions: quinolone-resistant, ParC 79Phe, GyrA 85Lys
Procedure: (§5) The S. pneumoniae strains used for this test belong to any one of the categories of penicillin-susceptible pneumococcus (penicillin-susceptible Streptococcus pneumoniae, PSSP), penicillin-intermediate pneumococcus (penicillin-intermediate Streptococcus pneumoniae, PISP), and penicillin-resistant pneumococcus (penicillin-resistant Streptococcus pneumoniae, PRSP).
(§6) The lysed horse blood was prepared by adding sterilized water to horse sterile defibered blood (produced by Nippon Bio-Supp. Center) at a ratio of 1:1, subjecting the mixture to freezing and thawing 5 times, then centrifuging the mixture twice at 10,000 rpm for 20 minutes, and filtering the supernatant through a filter.
(§7) The S. pneumoniae strains mentioned in Table 11 were each cultured overnight at 37° C. on a blood agar medium as stationary culture. The blood agar medium was prepared by adding 5 mass % ovine sterile defibered blood (produced by Nippon Bio-Supp. Center) to a heart infusion agar medium (produced by EIKEN CHEMICAL). Each S. pneumoniae strain cultured overnight at 37° C. as stationary culture was further subcultured overnight at 37° C. on fresh blood agar medium as stationary culture. After completion of the culture, cells of each pneumococcus strain were collected with a swab, and suspended in physiological saline, and the suspension was adjusted with physiological saline to show absorbance of 0.08 to 0.13 at 625 nm as measured with an absorbance meter (produced by Amersham), and further diluted 200 times with CAMHB containing 5 mass % LHB.
(§8) In Table 11, the amino acid substitution mutations in QRDR of the strains are underlined.

S. pneumoniae KBSP11 = experiment: MIC against pneumococcus, CAMHB with 5 mass % LHB; format: cell-based, Streptococcus pneumoniae
Procedure: as §5, §6, §7, §8

E. coli strain 1708 = experiment: Antibacterial activity against Escherichia coli
From the text: (§9) The numerical values in the tables indicate MIC (mg/L), Res means resistant bacterium, and Sus means susceptible bacterium.
(§10) Antibacterial activities against Escherichia coli of the compounds shown Table 19 were examined by the following method.
(§11) After completion of the culture, the cells were suspended in fresh TBS to prepare a cell suspension showing an absorbance of 0.3 at 578 nm.

E. coli strain 1709 = experiment: Antibacterial activity against Escherichia coli
From the text: as §9, §10, §11

[2] = system: E. coli strain 1708 plus PABN; experiment: Antibacterial activity against Escherichia coli in combination with efflux pump inhibitor PAβN; conditions: E coli plus PABN 40 mg/L, strain 1708, Quinolone Res
From the text: as §9, §10, §11

[3] = system: E. coli strain 1709 plus PABN; experiment: as above; conditions: E coli plus PABN 40 mg/L, strain 1709, Quinolone Sus
From the text: as §9, §10, §11

[4] = Staphylococcus aureus, ATCC 6538P / FDA209P / MSSA, read-out: MIC
[5] = Enterococcus faecium, NCTC 12202 / VRE
[6] = Enterococcus faecalis, NCTC 12201 / VRE
[7] = Enterococcus faecalis, 3615722, read-out: MIC
[8] = Streptococcus pneumoniae, BCLSP37, S. pneumoniae BCLSP37, PSSP, read-out: MIC

Row | SMILES | MIC (E. coli strain 1708) | MIC (E. coli strain 1709) | MIC [2] | MIC [3] | MIC [1, 4] | MIC ratio (Mu50 MIC/FDA209P MIC) (S. aureus Mu50) | MIC (S. aureus Mu50; Staphylococcus aureus, MRSA) | MIC (E. faecium NCTC12202; [5]) | MIC (E. faecium RPR2; Enterococcus faecium, RPR2) | MIC (E. faecalis NCTC12201; [6]) | MIC (E. faecalis 36-15722; [7]) | MIC (S. pneumoniae BCLSP37; [8]) | MIC (S. pneumoniae KBSP11; Streptococcus pneumoniae, PRSP) | other results
1 | Nc1ccc(-c2cc3c(cc2F)c(CO)cc(=O)n3C2CC2)cc1 [J-166] | 128 µg/mL (≈ 395 µM) | 8 µg/mL (≈ 24.7 µM) | 0.5 µg/mL | ≦0.06 mg/L |  |  |  |  |  |  |  |  |  | MIC [1]: 1 µg/mL (≈ 3.08 µM); MIC (S. aureus Mu50): 1 µg/mL (≈ 3.08 µM); MIC (E. faecium NCTC12202; E. faecium NCTC12202, VRE, quinolone-susceptible): 16 µg/mL (≈ 49.3 µM); MIC (E. faecium RPR2; E. faecium RPR2, quinolone-resistant, ParC 82Ile, GyrA 84Ile 88Lys): 8 µg/mL (≈ 24.7 µM); MIC (E. faecalis NCTC12201; E. faecalis NCTC12201, VRE): 1 µg/mL (≈ 3.08 µM); MIC (E. faecalis 36-15722): 2 µg/mL (≈ 6.17 µM); MIC (S. pneumoniae BCLSP37; S. pneumoniae BCLSP37, PSSP): 2 µg/mL (≈ 6.17 µM); MIC (S. pneumoniae KBSP11; S. pneumoniae KBSP11, PRSP, quinolone-susceptible): 2 µg/mL (≈ 6.17 µM)
2 | NCc1cc(=O)n(C2CC2)c2cc(-c3ccc(O)cc3)c(F)cc12 [J-139, 4-(aminomethyl)-1-cyclopropyl-6-fluoro-7-(4-hydroxyphenyl)hydroquinolin-2-one] |  |  |  |  | 0.5 µg/mL (≈ 1.54 µM) | 1 | 0.5 µg/mL (≈ 1.54 µM) | 8 µg/mL (≈ 24.7 µM) | 8 µg/mL (≈ 24.7 µM) | 1 µg/mL (≈ 3.08 µM) | 4 µg/mL (≈ 12.3 µM) | 4 µg/mL (≈ 12.3 µM) | 1 µg/mL (≈ 3.08 µM) | 
3 | O=c1cc(CO)c2cc(F)c(-c3ccc(O)cc3)c(Cl)c2n1C1CC1 [J-161] | 128 µg/mL (≈ 356 µM) | 16 µg/mL (≈ 44.5 µM) | 1 µg/mL | 0.13 µg/mL | 0.25 µg/mL (≈ 0.695 µM) |  | 0.5 µg/mL (≈ 1.39 µM) | 16 µg/mL (≈ 44.5 µM) | 8 µg/mL (≈ 22.2 µM) | 1 µg/mL (≈ 2.78 µM) | 1 µg/mL (≈ 2.78 µM) | 4 µg/mL (≈ 11.1 µM) | 2 µg/mL (≈ 5.56 µM) | 
4 | CC1COc2c(-c3ccc(O)cc3)c(F)cc3c(CO)cc(=O)n1c23 (stereo not shown) [J-149, 9-fluoro-7-(hydroxymethyl)-10-(4-hydroxyphenyl)-3-methyl-2H-[1,4]oxazino[2,3,4-ij]quinolin-5(3H)-one] |  |  |  |  | 0.5 µg/mL (≈ 1.46 µM) | 1 | 0.5 µg/mL (≈ 1.46 µM) | 128 µg/mL (≈ 375 µM) | 16 µg/mL (≈ 46.9 µM) | 0.5 µg/mL (≈ 1.46 µM) | 0.5 µg/mL (≈ 1.46 µM) | 8 µg/mL (≈ 23.4 µM) | 4 µg/mL (≈ 11.7 µM) | 
5 | COc1c(-c2ccc(O)cc2)c(F)cc2c(CO)cc(=O)n(C3CC3)c12 [J-156] | 128 µg/mL (≈ 360 µM) | 128 µg/mL (≈ 360 µM) | 2 µg/mL | 0.1 µg/mL | 0.5 µg/mL (≈ 1.41 µM) |  | 0.5 µg/mL (≈ 1.41 µM) |  |  | 2 µg/mL (≈ 5.63 µM) | 2 µg/mL (≈ 5.63 µM) | 2 µg/mL (≈ 5.63 µM) | 4 µg/mL (≈ 11.3 µM) | 
6 | O=c1cc(CO)c2cc(F)c(-c3ccc(O)c(O)c3)cc2n1C1CC1 [J-176] | 128 µg/mL (≈ 375 µM) | 32 µg/mL (≈ 93.7 µM) |  |  | 2 µg/mL (≈ 5.86 µM) |  | 1 µg/mL (≈ 2.93 µM) | 8 µg/mL (≈ 23.4 µM) | 4 µg/mL (≈ 11.7 µM) | 2 µg/mL (≈ 5.86 µM) | 2 µg/mL (≈ 5.86 µM) | 8 µg/mL (≈ 23.4 µM) | 4 µg/mL (≈ 11.7 µM) | 
7 | CC1NCc2cc(-c3cc4c(cc3F)c(CO)cc(=O)n4C3CC3)ccc21 (stereo not shown) [J-144, 1-cyclopropyl-6-fluoro-4-(hydroxymethyl)-7-(1-methylisoindolin-5-yl)hydroquinolin-2-one] |  |  |  |  | 0.5 µg/mL (≈ 1.37 µM) | 2 | 1 µg/mL (≈ 2.74 µM) | 8 µg/mL (≈ 22 µM) | 4 µg/mL (≈ 11 µM) | 0.5 µg/mL (≈ 1.37 µM) | 0.5 µg/mL (≈ 1.37 µM) | 0.5 µg/mL (≈ 1.37 µM) | 0.25 µg/mL (≈ 0.686 µM) | 
8 | Nc1ccc(-c2cc3c(cc2F)c(CO)cc(=O)n3C2CC2)cc1 [J-132CP, 7-(4-aminophenyl)-1-cyclopropyl-6-fluoro-4-(hydroxymethyl)hydroquinolin-2-one] |  |  |  |  | 0.5 µg/mL (≈ 1.54 µM) | 1 | 0.5 µg/mL (≈ 1.54 µM) | 16 µg/mL (≈ 49.3 µM) | 8 µg/mL (≈ 24.7 µM) | 2 µg/mL (≈ 6.17 µM) | 2 µg/mL (≈ 6.17 µM) | 4 µg/mL (≈ 12.3 µM) | 2 µg/mL (≈ 6.17 µM) | 
9 | O=c1cc(CO)c2cc(F)c(-c3ccccc3)cc2n1C1CC1 [J-168] | 128 µg/mL (≈ 414 µM) | 16 µg/mL (≈ 51.7 µM) | 0.5 µg/mL | ≦0.06 mg/L | 2 µg/mL (≈ 6.47 µM) |  | 2 µg/mL (≈ 6.47 µM) |  |  |  |  |  |  | 
10 | NOCc1cc(=O)n(C2CC2)c2cc(-c3ccc(O)cc3)c(F)cc12 [J-174] | 128 µg/mL (≈ 376 µM) | 64 µg/mL (≈ 188 µM) | 4 µg/mL | 0.5 µg/mL | 2 µg/mL (≈ 5.88 µM) |  | 1 µg/mL (≈ 2.94 µM) |  |  | 4 µg/mL (≈ 11.8 µM) | 8 µg/mL (≈ 23.5 µM) |  |  | 
11 | O=c1cc(CO)c2ccc(-c3ccc(O)cc3)c(F)c2n1C1CC1 [J-154, 1-cyclopropyl-8-fluoro-4-(hydroxymethyl)-7-(4-hydroxyphenyl)hydroquinolin-2-one] |  |  |  |  | 0.5 µg/mL (≈ 1.54 µM) | 0.5 | 0.25 µg/mL (≈ 0.768 µM) | 16 µg/mL (≈ 49.2 µM) | 8 µg/mL (≈ 24.6 µM) | 4 µg/mL (≈ 12.3 µM) | 2 µg/mL (≈ 6.15 µM) | 8 µg/mL (≈ 24.6 µM) | 8 µg/mL (≈ 24.6 µM) | 
12 | O=c1cc(CO)c2cc(F)c(-c3ccc(O)cc3)c(F)c2n1C1CC1 [J-155] | 128 µg/mL (≈ 373 µM) | 8 µg/mL (≈ 23.3 µM) | 0.5 µg/mL | ≦0.06 mg/L | 0.25 µg/mL (≈ 0.728 µM) |  | 0.13 µg/mL (≈ 0.379 µM) | 16 µg/mL (≈ 46.6 µM) | 8 µg/mL (≈ 23.3 µM) | 1 µg/mL (≈ 2.91 µM) | 1 µg/mL (≈ 2.91 µM) | 1 µg/mL (≈ 2.91 µM) | 12 µg/mL (≈ 35 µM) | 

— US20160257651A1, “NOVEL COMPOUND WITH ANTIBACTERIAL ACTIVITY” (priority 2013, published 2016)
